The results in this text go back to patent US6632962B2, “Caspase inhibitors and uses thereof” (Vertex Pharmaceuticals Incorporated, priority 1999, dated 2003).

Counter-ions that a name gives are not always drawn.

The subject of one assay is Jurkat E6.1 cells. The assay can be described thus: Anti-Fas induced apoptosis assay (DNA fragmentation). It counts as cell-based. Conditions: Homo sapiens, anti-Fas antibody CH-11 10 ng/ml, 16-18 hrs, DNA fragmentation OD405. From the text: Cellular apoptosis may be induced by the binding of Fas ligand (FasL) to its receptor, CD95 (Fas). CD95 is one of a family of related receptors, known as death receptors, which can trigger apoptosis in cells via activation of the caspase enzyme cascade. The process is initiated by the binding of the adapter molecule FADD/MORT-1 to the cytoplasmic domain of the CD-95 receptor-ligand complex. Caspase-8 then binds FADD and becomes activated, initiating a cascade of events that involve the activation of downstream caspases and subsequent cellular apoptosis. Apoptosis can also be induced in cells expressing CD95 eg the Jurkat E6.1 T cell lymphoma cell line, using an antibody, rather than FasL, to crosslink the cell surface CD95. Anti-Fas-induced apoptosis is also triggered via the activation of caspase-8. This provides the basis of a cell-based assay to screen compounds for inhibition of the caspase-8-mediated apoptotic pathway.
Jurkat E6.1 cells are cultured in complete medium consisting of RPMI-1640 (Sigma No)+10% foetal calf serum (Gibco BRL No.10099-141)+2 mM L-glutamine (Sigma No. G-7513). The cells are harvested in log phase of growth. 100 ml Cells at 5-8×10^5 cells/ml are transferred to sterile 50 ml Falcon centrifuge tubes and centrifuged for 5 minutes at 100× g at room temperature. The supernatant is removed and the combined cell pellets resuspended in 25 ml of complete medium. The cells are counted and the density adjusted to 2×10^6 cells/ml with complete medium.
The test compound was dissolved in dimethyl sulfoxide (DMSO)(Sigma No. D-2650) to give a 100 mM stock solution. This was diluted to 400 μM in complete medium, then serially diluted in a 96-well plate prior to addition to the cell assay plate.
100-μl of the cell suspension ([…]) were added to each well of a sterile 96-well round-bottomed cluster plate (Costar No. 3790). 50 μl of compound solution at the appropriate dilution and 50 μl of anti-Fas antibody, clone CH-11 (Kamiya No.MC-060) at a final concentration of 10 ng/ml, were added to the wells. Control wells were set up minus antibody and minus compound but with a serial dilution of DMSO as vehicle control. The plates were incubated for 16-18 hrs at 37° C. in 5% CO2 and 95% humidity.
Apoptosis of the cells was measured by the quantitation of DNA fragmentation using a ‘Cell Death Detection Assay’ from Boehringer-Mannheim, No. 1544 675. After incubation for 16-18 hrs the assay plates were centrifuged at 100× g at room temperature for 5 minutes. 150 μl of the supernatant were removed and replaced by 150 μl of fresh complete medium. The cells were then harvested and 200 μl of the lysis buffer supplied in the assay kit were added to each well. The cells were triturated to ensure complete lysis and incubated for 30 minutes at 4° C. The plates were then centrifuged at 1900× g for 10 minutes and the supernatants diluted 1:20 in the incubation buffer provided. 100 μl of this solution were then assayed exactly according to the manufacturer's instructions supplied with the kit. OD405 nm were measured 20 minutes after addition of the final substrate in a SPECTRAmax Plus plate reader (molecular Devices). OD405 nm was plotted versus compound concentration and the IC50 values for the compounds were calculated using the curve-fitting program SOFTmax Pro (Molecular Devices) using the four parameter fit option.

For assay [1], the target named is recombinant, purified human caspase-8 (Homo sapiens, UniProt Q14790). The assay can be described thus: Caspase-8 assay (fluorogenic substrate cleavage, kinact). It counts as biochemical. Conditions: second order rate constant of inactivation; 1.5 nM caspase-8, 10 μM AcDEVD-AMC, 37° C. As for the experimental part: The assay for caspase-8 activity was based on the cleavage of a fluorogenic substrate by recombinant, purified human caspase-8 essentially according to the method described by Garcia-Calvo et al (1998) J. Biol. Chem. 273:32608-32613.
recombinant, purified human caspase-8, sequence (Q14790 217-374 limits assumed): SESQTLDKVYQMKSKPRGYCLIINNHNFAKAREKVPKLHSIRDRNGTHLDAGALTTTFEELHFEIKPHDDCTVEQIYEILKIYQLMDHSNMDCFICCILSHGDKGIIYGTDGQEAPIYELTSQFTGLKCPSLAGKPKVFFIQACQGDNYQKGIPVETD
recombinant, purified human caspase-8, sequence (Q14790 385-479 limits assumed): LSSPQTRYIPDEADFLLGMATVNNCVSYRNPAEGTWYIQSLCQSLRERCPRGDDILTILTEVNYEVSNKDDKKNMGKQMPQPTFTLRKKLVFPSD
(§1) Assay Buffer: 10 mM Tris-HCI (Sigma T-3038), 1 mM dithiothreitol (DTT) (Calbiochem 233153), 0.1% CHAPS (Sigma C-3023), pH 7.5. Purified recombinant human Caspase-8. Substrate (acetyl-Asp-Glu-Val-Asp-amino-4-methyl coumarin, ACDEVD-AMC) (Bachem, I-1660). Serial dilution of test compound in DMSO (Sigma D-2650).
(§2) 70 microliters (μl) assay buffer, 20 μl of substrate and 5 μl of the inhibitor solution were added to the wells of a 96-well microtiter assay plate giving a final concentration of 1.5 nM caspase-8 and 10 μM substrate. The plate was incubated at 50° C. for 15 minutes in a thermostatically controlled plate warmer (Wesbart, UK). The reaction was then started by the addition of enzyme directly to the wells. The reaction was monitored continuously for 20 minutes in a fluorimeter (SPECTRAmax Gemini, Molecular Devices) at 37° C. by following the release of AMC fluorophor at an excitation wavelength of 390 nm and an emission wavelength of 460 nm. For each well, the observed rate of enzyme inactivation at a particular inhibitor concentration, kobs, was computed by direct fits of the data to the equation derived by Thornberry et al., (1994, Biochemistry 33, […]) using a non-linear least squares analysis computer program (PRISM 2.0, Graph Pad Software). To obtain the second order rate constant, kinact, kobs values were plotted against their respective inhibitor concentrations and kinact values were subsequently calculated by computerized linear regression.

A further assay concerns the target T1, Caspase-9 (Homo sapiens, UniProt P55211).
T1 construct: purchased Europa Bioproducts UBC2088
T1 sequence (P55211 1-315 limits assumed): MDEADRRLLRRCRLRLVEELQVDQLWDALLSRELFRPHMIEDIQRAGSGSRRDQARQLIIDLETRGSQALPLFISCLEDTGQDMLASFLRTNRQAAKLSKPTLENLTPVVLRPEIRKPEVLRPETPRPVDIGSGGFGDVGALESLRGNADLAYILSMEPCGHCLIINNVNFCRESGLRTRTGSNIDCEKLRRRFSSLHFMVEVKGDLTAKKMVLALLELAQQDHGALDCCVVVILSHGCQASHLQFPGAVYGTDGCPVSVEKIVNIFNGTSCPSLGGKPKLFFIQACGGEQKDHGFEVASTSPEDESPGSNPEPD
T1 sequence (P55211 331-416 limits assumed): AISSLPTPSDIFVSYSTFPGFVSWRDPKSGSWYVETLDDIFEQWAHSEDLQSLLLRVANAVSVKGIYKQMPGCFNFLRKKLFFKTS
Put plainly: Caspase-9 assay (fluorogenic substrate cleavage, kinact). To be noted: second order rate constant of inactivation; 0.00125 units/ml caspase-9, 50 μM AcDEVD-AMC, buffer with 8% glycerol. It counts as biochemical. As for the experimental part: as §1, §2
Caspase-9 was purchased from Europa Bioproducts (order No UBC2088) and used with a concentration of 0.00125 units/ml (units defined by the manufacturer as amount of enzyme that cleaves 1 nmol of LEHD-pNA in 1 h at 37° C.). The assay was run as described for the caspase-8 assay except that the caspase-9 buffer additionally contained 8% glycerol (and the substrate concentration is 50 μM AcDEVD-AMC as opposed to 10 μM for caspase-8).

`O=C(O)CC(NC(=O)c1ccccc1)C(=O)CF` (centres unmarked) [Example 1, 3-Benzoylamino-5-fluoro-4-oxo-pentanoic Acid]: the IC50 (usually the midpoint of a concentration-inhibition curve) with Jurkat E6.1 cells was below 200 nM. Further, in assay [1], the “Kinact (1/M/s), Caspase-8 Activity” value is “A (kinact (1/M/s) greater than 60,000)”. Further, at Caspase-9, the “Kinact (1/M/s), Caspase-9 Activity” value is on record as “A (kinact (1/M/s) greater than 60,000)”.
Regarding `O=C(O)CC(NC(=O)c1ccccc1Cl)C(=O)CF` (centres unmarked) [Example 4, 3-(2-Chlorobenzoylamino)-5-fluoro-4-oxo-pentanoic Acid], in the assay with Jurkat E6.1 cells, the IC50 was below 200 nM. Further, in assay [1], the “Kinact (1/M/s), Caspase-8 Activity” value is listed as “C (kinact less than 40,000)”.
On to `O=C(O)CC(NC(=O)c1ccc(Cl)c(Cl)c1)C(=O)CF` (centres unmarked) [Example 7, 3-(3,4-Dichlorobenzoylamino)-5-fluoro-4-oxo-pentanoic Acid], for which the IC50 in the assay with Jurkat E6.1 cells is 200 to 1000 nM. The “Kinact (1/M/s), Caspase-8 Activity” value in assay [1] was “B (kinact between 40,000 and 60,000)”.
For `O=C(O)CC(NC(=O)c1cccc(F)c1)C(=O)CF` (centres unmarked) [Example 10, 5-Fluoro-3-(3-fluorobenzoylamino)-4-oxo-pentanoic Acid], the IC50 in the assay with Jurkat E6.1 cells was below 200 nM. Moreover, the “Kinact (1/M/s), Caspase-8 Activity” value in assay [1] was “B (kinact between 40,000 and 60,000)”.
For `O=C(O)CC(NC(=O)c1ccc(C(F)(F)F)cc1)C(=O)CF` (centres unmarked) [Example 13, 5-Fluoro-3-(4-trifluoromethylbenzoylamino)-4-oxo-pent anoic Acid], in the assay with Jurkat E6.1 cells, the IC50 was above 1000 nM. Besides, the “Kinact (1/M/s), Caspase-8 Activity” value in assay [1] is on record as “C (kinact less than 40,000)”.
Regarding `O=C(O)CC(NC(=O)c1cccc(-c2ccccc2)c1)C(=O)CF` (centres unmarked) [Example 14, 3-(Biphenyl-3-carboxamido)-5-fluoro-4-oxo-pentanoic Acid], at Caspase-9, the “Kinact (1/M/s), Caspase-9 Activity” value is listed as “B (kinact less than 60,000)”.
In turn, `COc1cccc(C(=O)NC(CC(=O)O)C(=O)CF)c1` (centres unmarked) [Example 16, 5-Fluoro-3-(3-methoxybenzoylamino)-4-oxo-pentanoic Acid] showed an IC50 in the assay with Jurkat E6.1 cells below 200 nM. In addition, in assay [1], the “Kinact (1/M/s), Caspase-8 Activity” value was “B (kinact between 40,000 and 60,000)”.
Compound `N#Cc1cccc(C(=O)NC(CC(=O)O)C(=O)CF)c1` (centres unmarked) [Example 19, 3-(3-Cyanobenzoylamino)-5-fluoro-4-oxo-pentanoic Acid] came in with an IC50 with Jurkat E6.1 cells of 200 to 1000 nM. Besides, the “Kinact (1/M/s), Caspase-8 Activity” value in assay [1] is “B (kinact between 40,000 and 60,000)”.
`O=C(O)CC(NC(=O)c1cccc2ccccc12)C(=O)CF` (centres unmarked) [Example 22, 5-Fluoro-3-(naphthyl-1-carboxamido)-4-oxo-pentanoic acid] displayed an IC50 in the assay with Jurkat E6.1 cells below 200 nM. The “Kinact (1/M/s), Caspase-8 Activity” value in assay [1] was “B (kinact between 40,000 and 60,000)”.
`O=C(O)CC(NC(=O)c1cccnc1)C(=O)CF` (centres unmarked) [Example 25, 5-Fluoro-4-oxo-3-(pyridyl-3-carboxamido)-pentanoic Acid Trifluoroacetate Salt]: the IC50 in the assay on Jurkat E6.1 cells is below 200 nM. In addition, the “Kinact (1/M/s), Caspase-8 Activity” value in assay [1] was “B (kinact between 40,000 and 60,000)”.
In the assay with Jurkat E6.1 cells, `O=C(O)CC(NC(=O)c1cccs1)C(=O)CF` (centres unmarked) [Example 28, 5-Fluoro-4-oxo-3-(thienyl-2-carboxamido)-pentanoic Acid] registered an IC50 below 200 nM. Besides, in assay [1], the “Kinact (1/M/s), Caspase-8 Activity” value is given as “C (kinact less than 40,000)”.
As to `O=C(O)CC(NC(=O)c1ccsc1)C(=O)CF` (centres unmarked) [Example 29, 5-Fluoro-4-oxo-3-(thienyl-3-carboxamido)-pentanoic Acid], the “Kinact (1/M/s), Caspase-9 Activity” value at Caspase-9 was “B (kinact less than 60,000)”.
Turning to `O=C(O)CC(NC(=O)c1cc2ccccc2[nH]1)C(=O)CF` (centres unmarked) [Example 31, 5-Fluoro-3-(1H-indolyl-2-carboxamido)-4-oxo-pentanoi c Acid], in the assay on Jurkat E6.1 cells, the IC50 is above 1000 nM. For the same compound, the “Kinact (1/M/s), Caspase-8 Activity” value in assay [1] is on record as “C (kinact less than 40,000)”.
As to `O=C(O)CC(NC(=O)c1ccc(-c2ccccc2)o1)C(=O)CF` (centres unmarked) [Example 34, 5-Fluoro-3-(5-phenyl-furyl-2-carboxamido)-4-oxo-pentanoic Acid], in the assay on Jurkat E6.1 cells, the IC50 is 200 to 1000 nM. Moreover, in assay [1], the “Kinact (1/M/s), Caspase-8 Activity” value is “A (kinact (1/M/s) greater than 60,000)”.
In the case of `O=C(O)CC(NC(=O)c1cccc(Oc2ccccc2)c1)C(=O)CF` (centres unmarked) [Example 37, 5-Fluoro-4-oxo-3-(3-phenoxybenzoylamino)-pentanoic Acid], the IC50 in the assay with Jurkat E6.1 cells was below 200 nM. Further, the “Kinact (1/M/s), Caspase-8 Activity” value in assay [1] was “A (kinact (1/M/s) greater than 60,000)”.
